According to patent US20090311246A1, “Method of Enhancing Remyelination in Demyelinating Diseases of the Central Nervous System” (priority 2008, published 2009):
“Also recorded” adds a separate entry of the source.

Tests used:
[1] = system: Rabbit Anti-SFV polyclonal antibody; assay: Indirect ELISA of rabbit anti-SFV polyclonal IgG against viral and myelin antigens; type: binding
Procedure: The total IgG fraction was commercially prepared (Strategic Biosolutions, Ramona, Calif.) from pooled sera of 3 rabbits immunized once with UV-inactivated SFV (A774 strain) emulsified in CFA and boosted 3 times with antigen in IFA at weeks 3, 5, and 7. The IgG fraction of the pooled antisera was purified by ion-exchange chromatography and contained 8.7 mg IgG/ml of PBS. Antibody activities to SFV and peptides of SFV, to E2, and to recombinant ® MOG and its peptides were confirmed by ELISA. Normal rabbit IgG, isolated from pooled normal rabbit sera by ion-exchange chromatography (Signa Chemical Co., St. Louis, Mo.), was dissolved in saline. Protein concentration was determined by the Bradford assay (Sigma), using normal rabbit IgG as the standard. The IgG solutions were diluted to 3 mg protein/ml in saline and sterilized by passage through a 0.22 μm filter (Millipore Corp., Bedford, Mass.).
To measure the antibody response of both WT and γδ KO mice against SFV and two of the peptides of the SFV envelope protein, E2, an indirect ELISA was performed. Sera were pooled from 4-6 SFV-infected WT, and 3 KO, mice on days 0, 7, 14, 21 and 35 pi. Briefly, Immunolon 2HB 96 well microtiter plates (VWR, Bridge Port, N.J.) were coated with 1 μg/well of each antigen in 100 μl/well carbonate buffer overnight at room temperature. After washing, the plates were blocked and serum samples were added. […] After washing, biotinylated goat anti-mouse Igs (BD Pharmingen, Torreyana, Calif.), Strepavidin conjugated to Horse Radish Peroxidase (Vector Laboratories, Burlingame, Calif.), and OPD substrate (Sigma, St. Louis, Mo.) were used, as previously described (4, 9). […] Values were considered to be positive when they were >0.3 OD units and exceeded the mean value plus three standard deviations for antibody response on day 0 pi of mice of the same strain.
The polyclonal rabbit anti SFV antibody was commercially prepared (Strategic Biosolutions, Ramona, Calif.) from pooled sera of 3 rabbits, immunized once with UV-inactivated SFV (A774 strain) emulsified in CFA and boosted 3 times with antigen in IFA at weeks 3, 5, and 7.

[2] = system: Normal Rabbit Serum; assay: Indirect ELISA of normal rabbit serum/IgG against viral and myelin antigens; type: binding; details: 10^−2 diluted
[3] = system: SFV-infected WT and γδ KO mice; assay: E2 137-151 peptide immunization during SFV disease: histopathology, remyelination in one micron brain sections; type: in vivo; details: for Remyelination in KO mice: peptide-immunized SFV-infected γδ KO mice, day 28 pi
Text: FIG. 4 Remyelination in E2 137-151 immunized, SFV-infected WT and γδ-KO B6 mice. All figures come from one micron epoxy sections taken from brain tissues, fixed in 2.5% glutaraldehyde/1% osmium tetroxide, embedded in epoxy resin, stained with toluidine blue and photographed by light microscopy.
(§1) In order to be able to detect the de- and remyelination accurately, at the end of the experiment, mice will be sacrificed by an overdose of sodium pentobarbital and perfused by intracardiac puncture with Trumps fixative, containing 4% paraformaldehyde and 1% glutaraldehyde. Brains and spinal cords are removed and post fixed in osmium textroxide. Each brain is sectioned coronally into three pieces by cuts through infandibulum and optic chiasm. Spinal cord tissues will be also harvested and processed. Every third block (10-12 blocks per spinal cord, cervical to lumbar range) will be embedded, along with brain sections, in Araldite plastic. The embedded tissues will be cross-sectioned at 1 μm thickness, and the slides stained with toluidine blue or 4% paraphenylenediamine to highlight the myelin sheets. We have studied the one-micron thin sections of the brains of SFV-infected WT and KO on days of 21-42 postinfection.
as §1, with “[…] These lesions were impossible to quantitate due to very small sizes of nerve fibers. Consequently we plan to study” for “The embedded tissues will be cross-sectioned at 1 μm thickness, and”, “cross” for “slides stained with toluidine blue or 4% paraphenylenediamine to highlight the myelin sheets. We have studied the one-micron thin”, “spinal cords to quantitate these lesins, as has been previously reported (71). […]” for “the brains of SFV-infected WT and KO on days of 21-42 postinfection.”

CC[C@H](C)[C@H](NC(=O)[C@H](CCC(=O)O)NC(=O)[C@H](CCCCN)NC(=O)CNC(=O)[C@H](Cc1ccc(O)cc1)NC(=O)[C@H](Cc1c[nH]cn1)NC(=O)[C@@H]1CCCN1C(=O)[C@H](CCCNC(=N)N)NC(=O)[C@@H](NC(=O)[C@@H](NC(=O)[C@H](Cc1ccccc1)NC(=O)[C@H](CCCCN)NC(=O)[C@H](CCC(=O)O)NC(=O)[C@H](CCCNC(=N)N)NC(=O)CN)[C@@H](C)O)[C@@H](C)CC)C(=O)O [E2 137-151]
Rabbit Anti-SFV Ab, OD at 490 nm ([1]; 10^−2 diluted, indirect ELISA): 1.107 OD
Immunoreactivity of IgG fraction of serum from rabbits immunized with UV-inactivated SFV ([1]; ELISA): strong immunoreactivity
OD Difference ([1]; Rabbit Anti-SFV Ab minus Normal Rabbit Serum): 0.934 OD
Normal Rabbit Serum, OD at 490 nm [2]: 0.173 OD
Remyelination in WT mice ([3]; peptide-immunized SFV-infected WT mice): normal remyelination
Remyelination in KO mice [3]: advanced remyelination
Remyelination in KO mice ([3]; listed as E2 137-151 peptide): early remyelination; also recorded: promoted remyelination
